Test system: adult intensive care patients with acute moderate and severe TBI
Assay: NOSTRA phase III trial: Extended Glasgow Outcome Scale (eGOS) at 3 and 6 months, Ronopterin 17 mg/kg infused over 48 hours vs placebo, incl. post hoc subgroup analyses
Type: in vivo, human
Conditions: for Good Recovery (eGOS ≥ 7) at 6 months, Odds ratio, 95% CI / Improvement in eGOS from 3 to 6 months, at least + 1 eGOS level, Odds ratio, 95% CI / Good Recovery (eGOS ≥ 7) at 3 months, Odds ratio, 95% CI: vs placebo
Procedure: A phase III trial of Ronopterin infusion to adult TBI patients (18-60 years) with acute moderate and severe TBI was performed. Based on the results of the earlier phase II study, the NOSTRA (NO Synthase in TRAumatic Brain Injury) phase III trial was designed to detect clinically relevant differences in clinical outcome (Extended Glasgow Outcome Score at 6 months after injury) as primary endpoint.
NOSTRA III was a multicentre, prospective, two parallel groups, blinded, placebo-controlled, randomised phase III trial of Ronopterin infusion for 48 hours in adult intensive care patients with acute moderate and severe TBI. […] The detailed study protocol is described by Tegtmeier et al. Efficacy of Ronopterin (VAS203) in Patients with Moderate and Severe Traumatic Brain Injury (NOSTRA phase III trial): study protocol of a confirmatory, placebo-controlled, randomised, double blind, multi-centre study. Trials. 2020. A total of 224 evaluable patients with moderate and severe TBI were enrolled in 32 centres in Austria, France, Germany, Spain, and United Kingdom. The trial started on 24 Aug. 2016 with last-patient last-visit on 17 Jun. 2020.
Patients between 18 and 60 years of age with Glasgow Coma Score≥3 requiring intracranial pressure (ICP) monitoring were enrolled. Other inclusion criteria were TBI within the last 18 hours but at least 6 hours after the injury, which were expected to survive more than 24 hours after admission.
Ronopterin and placebo (0.9% saline) were infused continuously via central venous catheter at a constant rate. A total dose of 17 mg/kg body weight of Ronopterin was infused for 48 hours (daily dose 8.5 mg/kg body weight).
The primary outcome was the difference between eGOS in Ronopterin and placebo treated patients at 6 months after trauma. The eGOS was determined by a face to face meeting by trained assessors.
The null-hypothesis of no shift across the 8 ordered categories of eGOS for the two treatment groups was tested after six months based on a proportional odds model stratified by age (18-39 years and 40-60 years). The treatment effect was estimated using ordinal Logistic regression model as the (proportional) odds ratio of Ronopterin versus Placebo. Treatment and age (18-39 years and 40-60 years) were included in the model. The proportional odds assumption was tested using a Chi-Square Score Test.
As secondary efficacy endpoint the eGOS at 3 months was analysed using the same statistics.
The main objective of the post hoc analyses was to estimate the effect size of VAS203 compared with placebo for the primary endpoint eGOS-I in the subgroups time to infusion ≤12 hours and >12 hours. Supportive analyses were conducted by age group (<40 years, ≥40 years) because age group was used as a stratification factor in the study. Comparability between treatment groups regarding demographics as well as severity and location of disease was investigated using similar methods as in the main CSR.
The proportions of patients per eGOS-I level at 3 months and at 6 months were calculated. For the change in eGOS-I over time, the proportion of patients with changes from 3 to 6 months were calculated by eGOS-I level, and in addition categorised as decreased (i.e. any decrease in eGOS-I level from 3 to 6 months), unchanged (i.e. no change in eGOS-I level from 3 to 6 months), and increased (i.e. any increase in eGOS-I level from 3 to 6 months).
Ordinal logistic regression was used for the analysis of eGOS-I at 3 months and at 6 months, including treatment group and age group (<40 years, ≥40 years) as factors in the model. Estimated odds ratios for the comparison of the VAS203 and placebo groups of >1 mean that eGOS-I was higher in the VAS203 group than in the placebo group across the 8 levels, whereas odds ratios of <1 mean that eGOS-I was lower in the VAS203 group than in the placebo group. Odds ratios together with their 95% CIs were used to estimate and assess the size of the treatment effect of VAS203 compared to placebo. […]

CC(O)C(O)C1CNc2nc(N)nc(N)c2N1 [Ronopterin, 4-Amino-(6R,S)-5,6,7,8-tetrahydro-L-biopterin]
Good Recovery (eGOS ≥ 7) at 6 months, Odds ratio, 95% CI (All females 40-60 years (so in the source), >12 hours): 5.5 (0.6-53);
Good Recovery (eGOS ≥ 7) at 6 months, Odds ratio, 95% CI (All females, all times to infusion): 2.8 (0.6-12.6); n = 44
Improvement in eGOS from 3 to 6 months, at least + 1 eGOS level, Odds ratio, 95% CI (All males 18-60 years and young females 18-39 years, ≤12 hours): 3.4 (1.2-10.2);
Improvement in eGOS from 3 to 6 months, at least + 1 eGOS level, Odds ratio, 95% CI (All males 18-60 years, ≤12 hours): 3.7 (1.1-12);
Good Recovery (eGOS ≥ 7) at 6 months, Odds ratio, 95% CI (All males plus females 18-39 years, ≤12 hours): 2.4 (0.8-7.6);
Good Recovery (eGOS ≥ 7) at 3 months, Odds ratio, 95% CI (Female, 18-39 years, >12 hours): 6.5 (0.27-161);
Good Recovery (eGOS ≥ 7) at 6 months, Odds ratio, 95% CI (Female, 18-39 years, >12 hours): 2.3 (0.2-33);
Improvement in eGOS from 3 to 6 months, at least + 1 eGOS level, Odds ratio, 95% CI (Female, 18-39 years, >12 hours): 0.3 (0.04-2.8);
Good Recovery (eGOS ≥ 7) at 3 months, Odds ratio, 95% CI (Female, 18-39 years, ≤12 hours): 1.5 (0.06-41);
Good Recovery (eGOS ≥ 7) at 6 months, Odds ratio, 95% CI (Female, 18-39 years, ≤12 hours): 6.0 (0.2-163);
Improvement in eGOS from 3 to 6 months, at least + 1 eGOS level, Odds ratio, 95% CI (Female, 18-39 years, ≤12 hours): 1.5 (0.06-41);
Good Recovery (eGOS ≥ 7) at 3 months, Odds ratio, 95% CI (Female, 40-60 years, >12 hours): 4.2 (0.2-102);
Good Recovery (eGOS ≥ 7) at 6 months, Odds ratio, 95% CI (Female, 40-60 years, >12 hours): 6.2 (0.3-147);
Improvement in eGOS from 3 to 6 months, at least + 1 eGOS level, Odds ratio, 95% CI (Female, 40-60 years, >12 hours): 1.3 (0.1-18);
Good Recovery (eGOS ≥ 7) at 3 months, Odds ratio, 95% CI (Female, 40-60 years, ≤12 hours): 1.3 (0.02-83);
Good Recovery (eGOS ≥ 7) at 6 months, Odds ratio, 95% CI (Female, 40-60 years, ≤12 hours): 0.3 (0.01-11.3);
Improvement in eGOS from 3 to 6 months, at least + 1 eGOS level, Odds ratio, 95% CI (Female, 40-60 years, ≤12 hours): 0.3 (0.01-11.3);
Good Recovery (eGOS ≥ 7) at 3 months, Odds ratio, 95% CI (Females 18-39 years, all times to infusion): 4.2 (0.4-47); n = 23
Good Recovery (eGOS ≥ 7) at 3 months, Odds ratio, 95% CI (Females 40-60 years, all times to infusion): 5.7 (0.3-126); n = 21
Good Recovery (eGOS ≥ 7) at 3 months, Odds ratio, 95% CI (Male, 18-39 years, >12 hours): 0.2 (0.03-0.85);
Improvement in eGOS from 3 to 6 months, at least + 1 eGOS level, Odds ratio, 95% CI (Male, 18-39 years, >12 hours): 0.7 (0.2-1.9);
Good Recovery (eGOS ≥ 7) at 6 months, Odds ratio, 95% CI (Male, 18-39 years, time to infusion >12 hours): 0.6 (0.2-1.6);
Good Recovery (eGOS ≥ 7) at 6 months, Odds ratio, 95% CI (Male, 18-39 years, time to infusion ≤12 hours): 1.4 (0.3-5.9);
Good Recovery (eGOS ≥ 7) at 3 months, Odds ratio, 95% CI (Male, 18-39 years, ≤12 hours): 0.4 (0.08-2.2);
Improvement in eGOS from 3 to 6 months, at least + 1 eGOS level, Odds ratio, 95% CI (Male, 18-39 years, ≤12 hours): 5.4 (1.1-26);
Good Recovery (eGOS ≥ 7) at 3 months, Odds ratio, 95% CI (Male, 40-60 years, >12 hours): 0.2 (0.02-1.4);
Good Recovery (eGOS ≥ 7) at 6 months, Odds ratio, 95% CI (Male, 40-60 years, >12 hours): 0.6 (0.2-2.2);
Improvement in eGOS from 3 to 6 months, at least + 1 eGOS level, Odds ratio, 95% CI (Male, 40-60 years, >12 hours): 0.98 (0.3-2.8);
Good Recovery (eGOS ≥ 7) at 3 months, Odds ratio, 95% CI (Male, 40-60 years, ≤12 hours): 0.7 (0.01-38);
Good Recovery (eGOS ≥ 7) at 6 months, Odds ratio, 95% CI (Male, 40-60 years, ≤12 hours): 9.0 (0.4-194);
Improvement in eGOS from 3 to 6 months, at least + 1 eGOS level, Odds ratio, 95% CI (Male, 40-60 years, ≤12 hours): 2.3 (0.4-14.6);
increase in eGOS levels from 3 to 6 months (age 18-39 years, >12 hours (FIG. 7E)): up to 3 levels
number of patients with increase in eGOS by at least 2 levels from 3 to 6 months (age 18-39 years, >12 hours (FIG. 7G)): 10
less patients with decrease in eGOS over time vs placebo: significance (age 18-39 years, all times to infusion): not significant
increase in eGOS levels from 3 to 6 months (age 18-39 years, all times to infusion (FIG. 6A)): up to 3 levels
number of patients with increase in eGOS by at least 2 levels from 3 to 6 months (age 18-39 years, all times to infusion (FIG. 6C)): 14
more patients with higher increase in eGOS over time vs placebo: significance (age 18-39 years, all times to infusion (FIG. 6D)): not significant
increase in eGOS levels from 3 to 6 months (age 18-39 years, ≤12 hours (FIG. 7A)): up to 3 levels
increase in proportion of patients with an eGOS increase by at least 1 level compared to Placebo: significance (age 18-39 years, ≤12 hours (FIG. 7B, 7D)): significant
number of patients with increase in eGOS by at least 2 levels from 3 to 6 months (age 18-39 years, ≤12 hours (FIG. 7C)): 4
increase in eGOS levels from 3 to 6 months (age 40-60 years, >12 hours (FIG. 9E)): up to 4 levels
number of patients with increase in eGOS by at least 2 levels from 3 to 6 months (age 40-60 years, >12 hours (FIG. 9G)): 5
less patients with a decrease in eGOS over time vs placebo: significance (age 40-60 years, all times to infusion): not (statistically) significant
increase in eGOS levels from 3 to 6 months (age 40-60 years, all times to infusion (FIG. 8A)): up to 4 levels
